From publication PMC5401710, “Peptides with 6-Aminohexanoic Acid: Synthesis and Evaluation as Plasmin Inhibitors” (International Journal of Peptide Research and Therapeutics, 2016)
Like-named read-outs stand apart in the source and are kept apart here. Non-standard residues stand in square brackets, D forms with d. Residues, ends and D or L forms follow the SMILES beside them. Ahx = NCCCCCC(=O)O

Legend:
[1] = molecular target: T1, uPA (Homo sapiens, UniProt P00749); experiment: Amidolytic activity of urokinase (substrate S-2444); format: biochemical; conditions: for IC50: amidolytic activity, S-2444, tris buffer pH 8.8
T1 construct: purchased Sigma (Schnelldorf, Germany)
Protocol: (§1) Determination of amidolytic activity was performed as previously described by (Okada et al. [1988]). Buffer and 0.1 ml of enzyme solution was added to 0.2 ml of examined compound dissolved in 0.15 M NaCl (1–15) (as control 0.15 M NaCl). The buffer and the enzyme solution included: • tris buffer—0.6 ml (pH 8.8), enzyme: urokinase (50 units/ml), synthetic substrate: S-2444 (0.1 ml, 3 mM); • tris buffer—0.5 ml (pH 8.4), enzyme: thrombin (1 units/ml), synthetic substrate: S-2238 (0.2 ml, 0.75 mM); • tris buffer—0.5 ml (pH 7.4), enzyme: plasmin (0.4 units/ml), synthetic substrate: S-2251 (0.2 ml, 3 mM); • […]—0.5 ml (pH 7.5), enzyme: trypsin (0.4 units/ml), synthetic substrate: Bzl-L-Arg–pNA.HCl (0.2 ml, 8 mM); • tris buffer—0.6 ml (pH 9.0), enzyme: kallikrein (3 units/ml), synthetic substrate: S-2266 (0.1 ml, 75 mM); • tris buffer—0.6 ml (pH 8.4), enzyme: t-PA ([…]), synthetic substrate: S-2288 (0.1 ml, 10 mM).
(§2) IC50 values were determined (IC50, Inhibitor Concentration, the concentration at which enzyme activity is inhibited by 50 %). Our results were compared with the 6-aminohexanoic acid.

[2] = molecular target: T2, plasmin (Homo sapiens, UniProt P00747); experiment: Amidolytic activity of plasmin (substrate S-2251); format: biochemical; conditions: for IC50: amidolytic activity, S-2251, tris buffer pH 7.4
T2 construct: The amino-terminal heavy chain of PL consists of five kringle domains; The C-terminal light chain of plasmin is a typical serine protease (SP); purchased Chromogenix (Milano, Italy)
T2 sequence (P00747 97-580 limits assumed): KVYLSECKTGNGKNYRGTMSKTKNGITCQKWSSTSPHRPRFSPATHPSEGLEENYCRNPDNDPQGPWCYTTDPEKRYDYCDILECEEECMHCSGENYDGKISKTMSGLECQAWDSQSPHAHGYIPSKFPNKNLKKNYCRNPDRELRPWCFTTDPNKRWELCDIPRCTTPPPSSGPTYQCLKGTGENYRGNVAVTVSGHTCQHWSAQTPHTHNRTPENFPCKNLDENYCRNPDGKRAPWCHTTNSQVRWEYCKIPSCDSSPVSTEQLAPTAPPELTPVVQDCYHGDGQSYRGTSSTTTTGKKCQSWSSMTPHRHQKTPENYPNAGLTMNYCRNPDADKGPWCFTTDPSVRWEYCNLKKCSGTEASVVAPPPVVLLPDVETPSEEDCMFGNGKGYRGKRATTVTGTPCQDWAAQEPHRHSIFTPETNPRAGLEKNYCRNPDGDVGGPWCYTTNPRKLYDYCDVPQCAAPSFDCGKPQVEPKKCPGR
T2 sequence (P00747 581-810 limits assumed): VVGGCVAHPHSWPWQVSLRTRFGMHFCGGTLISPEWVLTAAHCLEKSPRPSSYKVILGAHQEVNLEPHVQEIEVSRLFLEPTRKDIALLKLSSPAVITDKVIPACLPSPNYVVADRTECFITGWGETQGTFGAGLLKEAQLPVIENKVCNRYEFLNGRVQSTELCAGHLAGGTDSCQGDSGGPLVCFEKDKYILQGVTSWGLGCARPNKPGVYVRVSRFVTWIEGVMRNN
Protocol: as §1, §2

[3] = molecular target: T3, thrombin (Bos taurus, UniProt P00735); experiment: Amidolytic activity of thrombin (substrate S-2238); format: biochemical; conditions: for IC50: amidolytic activity, S-2238, tris buffer pH 8.4
T3 construct: purchased Lubelska Wytwórnia Szczepionek (Lublin, Poland)
Protocol: as §1, §2

[4] = test system: trypsin; experiment: Amidolytic activity of trypsin (substrate Bzl-L-Arg-pNA); format: biochemical; conditions: for IC50: amidolytic activity, Bzl-L-Arg-pNA, borane buffer pH 7.5
Protocol: as §1, §2

[5] = molecular target: T4, tPA (Homo sapiens, UniProt P00750); experiment: Amidolytic activity of t-PA (substrate S-2288); format: biochemical; conditions: for IC50: amidolytic activity, S-2288, tris buffer pH 8.4
T4 construct: purchased Boehringer Ingelheim GmbH (Ingelheim, Germany)
T4 sequence (P00750 36-562): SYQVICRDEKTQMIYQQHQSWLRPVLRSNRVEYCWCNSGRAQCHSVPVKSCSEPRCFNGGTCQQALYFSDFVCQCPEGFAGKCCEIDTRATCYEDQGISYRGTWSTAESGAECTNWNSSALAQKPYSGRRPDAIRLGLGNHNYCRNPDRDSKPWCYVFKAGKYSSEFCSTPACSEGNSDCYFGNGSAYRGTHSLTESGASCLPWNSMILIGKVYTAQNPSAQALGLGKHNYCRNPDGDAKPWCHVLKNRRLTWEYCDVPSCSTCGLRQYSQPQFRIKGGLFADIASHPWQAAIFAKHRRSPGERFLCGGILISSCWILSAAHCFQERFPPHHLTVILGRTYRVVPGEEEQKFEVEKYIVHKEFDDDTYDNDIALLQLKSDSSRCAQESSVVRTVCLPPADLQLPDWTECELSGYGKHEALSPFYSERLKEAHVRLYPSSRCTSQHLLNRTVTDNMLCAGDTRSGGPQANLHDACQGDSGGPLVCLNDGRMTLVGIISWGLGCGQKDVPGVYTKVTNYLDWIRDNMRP
Protocol: as §1, §2

[6] = molecular target: T2, plasmin; conditions: cited from earlier work; for inhibitory effect on plasmin activity: ref Midura-Nowaczek et al. [2003]
[7] = test system: fibrinolysis in whole blood; experiment: Thromboelastometric (ROTEM) analysis of clot formation and fibrinolysis in whole blood; set-up: species or system human; conditions: for clotting time (CT, coagulation time) / lysis of the clot in 45 min (from LI45): human whole blood; for clotting time (CT, coagulation time): control 174 s; for lysis of the clot in 45 min (from LI45): whole blood alone about 61 %; for LOT lysis onset time (clot amplitude reduced by 15 %) / LT lysis time (clot reduced/lysed by 90 %) / LI30 lysis index, amplitude of clot after 30 min / LI45 lysis index, amplitude of clot after 45 min / LI60 lysis index, amplitude of clot after 60 min: recalcified human whole blood; for LOT lysis onset time (clot amplitude reduced by 15 %) / LT lysis time (clot reduced/lysed by 90 %): 140 ng/ml TF, 125 ng/ml tPA; for LI30 lysis index, amplitude of clot after 30 min / LI45 lysis index, amplitude of clot after 45 min / LI60 lysis index, amplitude of clot after 60 min: TF + tPA
Protocol: Five healthy volunteers, men (age range: 25–34 years)) with normal blood cell counts were entered into the study. Healthy volunteers had not taken medication known to affect platelet function and/or coagulation for at least 10 days before blood sampling.
Blood was stored at room temperature for 30 min after venipuncture and then was evaluated by thromboelastometric analyses.
Thromboelastometric measurements were performed using ROTEM system (Tem International GmbH, Manheim, Germany). […] We measured the parameters characterized kinetic of clot formation (clotting time, alpha angle), clot strength (maximal clot firmness; MCF), and fibrinolysis (percentage reduction of MCF, clot lysis time).

[8] = test system: kallikrein; experiment: Amidolytic activity of kallikrein (substrate S-2266); format: biochemical; conditions: maximum concentration 20 mM, S-2266, pH 9.0
Protocol: as §1, §2

[9] = test system: MCF-7 cells; experiment: Cytotoxicity assay (method of Plumb et al.); format: cell-based; conditions: 10, 100, 250, 500 and 1000 μM
Protocol: (§3) All studies were performed on MCF-7, MDA-MB-231 and DLD cells lines were purchased from American Type Culture Collection (Rockville, MD). The cells were maintained in DMEM supplemented with 5 % fetal bovine serum (FBS), […] glutamine, 50 U/ml penicillin, […] streptomycin at 37 °C in a 5 % CO2 incubator.
(§4) The toxicity of the evaluated peptides was determined by the method of Plumb et al. ([1989]) in 10, 100, 250, 500 and 1000 μM concentrations. MCF-7, MDA-MB-231 and DLD cells were maintained as described above. The detailed description of the method is given by (Markowska et al. [2013]).

[10] = test system: colon cancer cell line DLD-1; experiment: Cytotoxicity assay (method of Plumb et al.); format: cell-based; conditions: 10, 100, 250, 500 and 1000 μM
Protocol: as §3, §4

[11] = test system: MDA-MB-231 cells; experiment: Cytotoxicity assay (method of Plumb et al.); format: cell-based; conditions: 10, 100, 250, 500 and 1000 μM
Protocol: as §3, §4

[12] = test system: fibroblast cells; experiment: Cytotoxicity assay, normal cells; format: cell-based
[13] = ref Midura-Nowaczek et al. [1990]
[14] = listed as H–Ala–Phe–Lys–EACA–NH2

IC50 [1]	IC50 [2]	IC50 [3]	IC50 [5]	Compound	further results
> 20 mM	1.11 ± 0.09 mM	> 20 mM	> 20 mM	C[C@@H](N)C(=O)N[C@@H](Cc1ccccc1)C(=O)N[C@@H](CCCCN)C(=O)NCCCCCC(=O)NCCCCCN [Compound 12, H–D-Ala–Phe–Lys–EACA–NH–(CH2)5–NH2]	IC50 [4]: > 20 mM
> 20 mM	1.55 ± 0.12 mM	> 20 mM	> 20 mM	C[C@@H](N)C(=O)N[C@@H](Cc1ccccc1)C(=O)NCCCCCC(N)=O [Compound 9, H–D-Ala–Phe–EACA–NH2] (H-[dA]-Phe-[Ahx]-NH2)	
3.38 ± 0.27 mM	> 20 mM	4.77 ± 0.38 mM	> 20 mM	C[C@H](N)C(=O)N[C@@H](Cc1ccccc1)C(=O)NCCCCCC(=O)O [Compound 5, H–Ala–Phe–EACA–OH] (H-Ala-Phe-[Ahx]-OH)	
> 20 mM	1.4 ± 0.11 mM	> 20 mM	> 20 mM	C[C@H](N)C(=O)N[C@@H](Cc1ccccc1)C(=O)N[C@@H](CCCCN)C(=O)NCCCCCC(=O)NCCCCCN [Compound 13, H–Ala–Phe–Lys–EACA–NH–(CH2)5–NH2]	
3.17 ± 0.25 mM	10.9 ± 0.87 mM	> 20 mM	6.48 ± 0.52 mM	C[C@@H](N)C(=O)N[C@@H](Cc1ccccc1)C(=O)NCCCCCC(=O)O [Compound 4, H–D-Ala–Phe–EACA–OH] (H-[dA]-Phe-[Ahx]-OH)	
> 20 mM	4.77 ± 0.38 mM	> 20 mM	> 20 mM	C[C@@H](N)C(=O)N[C@@H](Cc1ccccc1)C(=O)NCCCCCC(=O)NCCCCCN [Compound 14, H–D-Ala–Phe–EACA–NH–(CH2)5–NH2]	
> 20 mM	4.82 ± 0.39 mM	> 20 mM	> 20 mM	NCCCCCNC(=O)CCCCCNC(=O)[C@H](CCCCN)NC(=O)[C@@H](N)Cc1ccccc1 [Compound 11, H–Phe–Lys–EACA–NH–(CH2)5–NH2]	
> 20 mM	> 20 mM	> 20 mM	> 20 mM	C[C@H](N)C(=O)N[C@@H](Cc1ccccc1)C(=O)NCCCCCC(=O)NCCCCCN [Compound 15, H–Ala–Phe–EACA–NH–(CH2)5–NH2]	
2.61 ± 0.21 mM	> 20 mM	> 20 mM	> 20 mM	C[C@H](N)C(=O)N[C@@H](Cc1ccccc1)C(=O)NCCCCCC(N)=O [Compound 10, H–Ala–Phe–EACA–NH2] (H-Ala-Phe-[Ahx]-NH2)	
> 20 mM	4.82 ± 0.39 mM	5.04 ± 0.4 mM	17.6 ± 1.41 mM	C[C@H](N)C(=O)N[C@@H](Cc1ccccc1)C(=O)N[C@@H](CCCCN)C(=O)NCCCCCC(=O)O [Compound 3, H–Ala–Phe–Lys–EACA–OH] (H-AFK[Ahx]-OH)	
> 20 mM	1.43 ± 0.11 mM	> 20 mM	> 20 mM	NCCCC[C@H](NC(=O)[C@@H](N)Cc1ccccc1)C(=O)NCCCCCC(N)=O [Compound 6, H–Phe–Lys–EACA–NH2] (H-Phe-Lys-[Ahx]-NH2)	IC50 [4]: > 20 mM

Continued, compound first:

Compound	IC50 [1]	IC50 [2]	IC50 [3]	IC50 [5]	further results
H–Ala–Phe–Lys–NH2					inhibitory effect on plasmin activity [6]: completely lacked this effect
C[C@@H](N)C(=O)N[C@@H](Cc1ccccc1)C(=O)N[C@@H](CCCCN)C(=O)NCCCCCC(N)=O [Compound 7, H–D-Ala–Phe–Lys–EACA–NH2] (H-[dA]FK[Ahx]-NH2)	> 20 mM	0.02 ± 0.0016 mM	> 20 mM	> 20 mM	clotting time (CT, coagulation time) [7]: 115 s; lysis of the clot in 45 min (from LI45) [7]: 21%; LOT lysis onset time (clot amplitude reduced by 15 %) [7]: 2519 ± 176 s; LT lysis time (clot reduced/lysed by 90 %) [7]: 72 ± 4 min; LI30 lysis index, amplitude of clot after 30 min [7]: 97%; LI45 lysis index, amplitude of clot after 45 min [7]: 79%; LI60 lysis index, amplitude of clot after 60 min [7]: 28%; IC50 [4]: > 20 mM
NCCCC[C@H](NC(=O)[C@@H](N)Cc1ccccc1)C(=O)NCCCCCC(=O)O [Compound 1, H–Phe–Lys–EACA–OH] (H-Phe-Lys-[Ahx]-OH)	> 20 mM	11.4 ± 0.91 mM	> 20 mM	> 20 mM	
NCCCCCC(=O)O [EACA, 6-aminohexanoic acid]					influence on the enzymatic activity of kallikrein [8]: No effect; effect on amidolytic activity of uPA (in words) ([1]; maximum concentration 20 mM): No effect; cytotoxic effect / viability of MCF-7 cells [9]: did not display cytotoxicity; cytotoxic effect / viability of DLD-1 cells [10]: did not display cytotoxicity; cytotoxic effect / viability of MDA-MB-231 cells [11]: did not display cytotoxicity; cytotoxic effect / viability of fibroblast cells [12]: did not display cytotoxicity; effect on amidolytic activity of plasmin (in words) ([2]; maximum concentration 20 mM): No effect; effect on amidolytic activity of thrombin (in words) ([3]; maximum concentration 20 mM): No effect; clotting time (CT, coagulation time) [7]: 137 s; lysis of the clot in 45 min (from LI45) [7]: 1%; LOT lysis onset time (clot amplitude reduced by 15 %) [7]: ≥4084 s; LT lysis time (clot reduced/lysed by 90 %) [7]: ≥168 min; LI30 lysis index, amplitude of clot after 30 min [7]: 100%; LI45 lysis index, amplitude of clot after 45 min [7]: 98%; LI60 lysis index, amplitude of clot after 60 min [7]: 92%; effect on amidolytic activity of trypsin (in words) ([4]; maximum concentration 20 mM): No effect; effect on amidolytic activity of tPA (in words) ([5]; maximum concentration 20 mM): No effect
H–D-Ala–Phe–Lys–NH–(CH2)5–NH2					plasmin inhibitory activity [6, 13]: no activity
C[C@@H](N)C(=O)N[C@@H](Cc1ccccc1)C(=O)N[C@@H](CCCCN)C(=O)NCCCCCC(=O)O [Compound 2, H–D-Ala–Phe–Lys–EACA–OH] (H-[dA]FK[Ahx]-OH)	> 20 mM	3.37 ± 0.27 mM	3.85 ± 0.31 mM	14.4 ± 1.15 mM	
H–Ala–Phe–Lys–NH–(CH2)5–NH2					plasmin inhibitory activity [6, 13]: no plasmin inhibitory activity
H-[dA]-Phe-Lys-NH2					plasmin inhibitory activity ([6]; ref Markowska et al. ([2007])): no activity; inhibitory effect on plasmin activity [6]: completely lacked this effect
CC(=O)N[C@@H](CCCCN)C(=O)NCCCCCN [Ac–Lys–NH–(CH2)5–NH2]					IC50 ([6]; ref Midura-Nowaczek et al. [2008]): 8 mM
C[C@H](N)C(=O)N[C@@H](Cc1ccccc1)C(=O)N[C@@H](CCCCN)C(=O)NCCCCCC(N)=O [Compound 8, H–Ala–Phe–Lys–EACA–NH2] (H-AFK[Ahx]-NH2)	> 20 mM	0.13 ± 0.01 mM	7.59 ± 0.61 mM	> 20 mM	clotting time (CT, coagulation time) [7]: 135 s; lysis of the clot in 45 min (from LI45) [7]: 14%; LOT lysis onset time (clot amplitude reduced by 15 %) [7]: 2731 s; LT lysis time (clot reduced/lysed by 90 %) [7]: about 67 min; LOT lysis onset time (clot amplitude reduced by 15 %) [7, 14]: 2731 ± 160 s; LT lysis time (clot reduced/lysed by 90 %) [7, 14]: 76 ± 6 min; LI30 lysis index, amplitude of clot after 30 min [7]: 99%; LI45 lysis index, amplitude of clot after 45 min [7]: 86%; LI60 lysis index, amplitude of clot after 60 min [7]: 43%; IC50 [4]: > 20 mM
NCCCCCC(N)=O [H–EACA–NH2, reference compound]					clotting time (CT, coagulation time) [7]: 117 s; lysis of the clot in 45 min (from LI45) [7]: 20%; LOT lysis onset time (clot amplitude reduced by 15 %) [7]: 2488 ± 172 s; LT lysis time (clot reduced/lysed by 90 %) [7]: 71 ± 5 min; LI30 lysis index, amplitude of clot after 30 min [7]: 96%; LI45 lysis index, amplitude of clot after 45 min [7]: 80%; LI60 lysis index, amplitude of clot after 60 min [7]: 32%
